Measurements taken from ChEMBL document CHEMBL3779788, “Facile synthesis of 1,3-thiazolidin-4-ones as antitubercular agents” (Bioorg Med Chem Lett, 2016).
In brackets after ≈: the same amount, converted by molar mass.

How the values were obtained:
[1] = system: Mycobacterium bovis BCG str. ATCC 35743; assay: Antitubercular activity against dormant Mycobacterium bovis BCG ATCC 35743 assessed as growth inhibition at 3 ug/mL by NR assay; format: functional
[2] = system: Mycobacterium bovis BCG str. ATCC 35743; assay: Antitubercular activity against dormant Mycobacterium bovis BCG ATCC 35743 assessed as growth inhibition at 10 ug/mL by NR assay; format: functional
[3] = system: Mycobacterium tuberculosis; assay: Antitubercular activity against dormant Mycobacterium tuberculosis H37Ra assessed as growth inhibition at 30 ug/mL by XTT reduction menadione assay; format: functional; details: read-out: GI
[4] = system: Mycobacterium tuberculosis; assay: Antitubercular activity against dormant Mycobacterium tuberculosis H37Ra assessed as growth inhibition at 10 ug/mL by XTT reduction menadione assay; format: functional; details: read-out: GI
[5] = system: Mycobacterium tuberculosis; assay: Antitubercular activity against dormant Mycobacterium tuberculosis H37Ra assessed as growth inhibition at 3 ug/mL by XTT reduction menadione assay; format: functional; details: read-out: GI
[6] = system: Mycobacterium bovis BCG str. ATCC 35743; assay: Antitubercular activity against dormant Mycobacterium bovis BCG ATCC 35743 assessed as growth inhibition at 30 ug/mL by NR assay; format: functional
[7] = (§1) Antitubercular activity against dormant Mycobacterium bovis BCG ATCC 35743 by NR assay; format: functional, Mycobacterium bovis BCG str. ATCC 35743
[8] = system: Mycobacterium bovis BCG str. ATCC 35743; assay: as §1; format: functional
[9] = system: Mycobacterium tuberculosis; assay: Antitubercular activity against dormant Mycobacterium tuberculosis H37Ra by XTT reduction menadione assay; format: functional, organism-based
[10] = Cytotoxicity against human MCF7 cells at 30 ug/mL by MTT assay; format: cell-based; details: read-out: INH
[11] = Cytotoxicity against human MCF7 cells at 10 ug/mL by MTT assay; format: cell-based; details: read-out: INH
[12] = Cytotoxicity against human MCF7 cells at 3 ug/mL by MTT assay; format: cell-based; details: read-out: INH
[13] = Cytotoxicity against human A549 cells at 30 ug/mL by MTT assay; format: cell-based; details: read-out: INH
[14] = Cytotoxicity against human A549 cells at 10 ug/mL by MTT assay; format: cell-based; details: read-out: INH
[15] = Cytotoxicity against human A549 cells at 3 ug/mL by MTT assay; format: cell-based; details: read-out: INH
[16] = Cytotoxicity against human HCT116 cells at 30 ug/mL by MTT assay; format: cell-based, HCT-116; details: read-out: INH
[17] = Cytotoxicity against human HCT116 cells at 10 ug/mL by MTT assay; format: cell-based, HCT-116; details: read-out: INH
[18] = Cytotoxicity against human HCT116 cells at 3 ug/mL by MTT assay; format: cell-based, HCT-116; details: read-out: INH
[19] = Cytotoxicity against human HCT116 cells after 48 and 72 hrs by MTT assay; format: cell-based, HCT-116; details: for GI50 at 72 h: HCT116 cells; for GI90: hct-116, 72 h
[20] = (§2) Cytotoxicity against human A549 cells after 48 and 72 hrs by MTT assay; format: cell-based; details: A549 cells
A549 = assay: as §2; format: cell-based; details: a549, 72 h
[21] = (§3) Cytotoxicity against human MCF7 cells after 48 and 72 hrs by MTT assay; format: cell-based; details: MCF7 cells
MCF7 = assay: as §3; format: cell-based; details: mcf7, 72 h
Escherichia coli = assay: Antibacterial activity against Escherichia coli after 18 hrs by broth dilution method; format: functional, organism-based
Pseudomonas = assay: Antibacterial activity against Pseudomonas after 18 hrs by broth dilution method; format: functional, organism-based
Staphylococcus aureus = assay: Antibacterial activity against Staphylococcus aureus after 18 hrs by broth dilution method; format: functional, organism-based
Bacillus subtilis = assay: Antibacterial activity against Bacillus subtilis after 18 hrs by broth dilution method; format: functional, organism-based

`COc1ccc(C2SCC(=O)N2c2ccccc2)cc1` (configuration not stated) showed a growth inhibition (GI) [1] of 23.2%, a growth inhibition (GI) [2] of 56.1% and an inhibition of growth at 30 µg/mL [3] of 83.3%. The inhibition of growth at 10 µg/mL [4] was 74.1%, the inhibition of growth at 3 µg/mL [5] was 45.1% and the growth inhibition (GI) [6] was 85.9%. The IC50 [7] was 8.7 mg/L (≈ 30.5 µM), the IC90 [8] was > 30 mg/L and the IC50 [9] was 4.2 mg/L (≈ 14.7 µM). For the same compound, the IC90 [9] was > 30 mg/L, the cytotoxicity at 30 ug/mL [10] was 18.3% and the cytotoxicity at 10 ug/mL [11] was 12.6%. The cytotoxicity at 3 ug/mL [12] was -2.6%, the cytotoxicity at 30 ug/mL [13] was -4.3% and the cytotoxicity at 10 ug/mL [14] was 0%. It also gave a cytotoxicity at 3 ug/mL [15] of 0%, a cytotoxicity at 30 ug/mL [16] of 8.4% and a cytotoxicity at 10 ug/mL [17] of 7.2%. The cytotoxicity at 3 ug/mL [18] was -5.4%, the GI50 at 72 h [19] was > 100 mg/L and the GI90 [19] was > 100 mg/L. The GI50 at 72 h [20] was > 100 mg/L, the GI90 (A549) was > 100 mg/L and the GI50 at 72 h [21] was > 100 mg/L. For the same compound, the GI90 (MCF7) was > 100 mg/L, the IC50 (Escherichia coli) was > 30 mg/L and the MIC (Escherichia coli) was > 30 mg/L. For the same compound, the IC50 (Pseudomonas) was > 30 mg/L, the MIC (Pseudomonas) was > 30 mg/L and the IC50 (Staphylococcus aureus) was > 30 mg/L. For the same compound, the MIC (Staphylococcus aureus) was > 30 mg/L, the IC50 (Bacillus subtilis) was > 30 mg/L and the MIC (Bacillus subtilis) was > 30 mg/L.

`O=C1CSC(c2ccccc2)N1c1ccc(Cl)cc1` (configuration not stated) showed a growth inhibition (GI) [1] of 1.3%, a growth inhibition (GI) [2] of -11.3% and an inhibition of growth at 30 µg/mL [3] of 94.3%. The inhibition of growth at 10 µg/mL [4] was 24.2%, the inhibition of growth at 3 µg/mL [5] was -17% and the growth inhibition (GI) [6] was 11.6%. For the same compound, the IC50 [7] was > 30 mg/L, the IC90 [8] was > 30 mg/L and the IC50 [9] was 17.3 mg/L (≈ 59.7 µM). For the same compound, the IC90 [9] was 28.7 mg/L (≈ 99 µM), the cytotoxicity at 30 ug/mL [10] was 38% and the cytotoxicity at 10 ug/mL [11] was 19.5%. The cytotoxicity at 3 ug/mL [12] was 11.2%, the cytotoxicity at 30 ug/mL [13] was 13.4% and the cytotoxicity at 10 ug/mL [14] was 0%. It also gave a cytotoxicity at 3 ug/mL [15] of -12.3%, a cytotoxicity at 30 ug/mL [16] of 32.8% and a cytotoxicity at 10 ug/mL [17] of 30%. For the same compound, the cytotoxicity at 3 ug/mL [18] was 19%, the GI50 at 72 h [19] was > 100 mg/L and the GI90 [19] was > 100 mg/L. For the same compound, the GI50 at 72 h [20] was > 100 mg/L, the GI90 (A549) was > 100 mg/L and the GI50 at 72 h [21] was > 100 mg/L. The GI90 (MCF7) was > 100 mg/L, the IC50 (Escherichia coli) was > 30 mg/L and the MIC (Escherichia coli) was > 30 mg/L. The IC50 (Pseudomonas) was > 30 mg/L, the MIC (Pseudomonas) was > 30 mg/L and the IC50 (Staphylococcus aureus) was > 30 mg/L. For the same compound, the MIC (Staphylococcus aureus) was > 30 mg/L, the IC50 (Bacillus subtilis) was > 30 mg/L and the MIC (Bacillus subtilis) was > 30 mg/L.

Compound `Cc1ccc(C2SCC(=O)N2c2ccc(F)cc2)cc1` (configuration not stated) has a growth inhibition (GI) [1] of -3%, a growth inhibition (GI) [2] of -4% and an inhibition of growth at 30 µg/mL [3] of 51.3%. The inhibition of growth at 10 µg/mL [4] was -37%, the inhibition of growth at 3 µg/mL [5] was 10.9% and the growth inhibition (GI) [6] was -3.9%. For the same compound, the IC50 [7] was > 30 mg/L, the IC90 [8] was > 30 mg/L and the IC50 [9] was 29.8 mg/L (≈ 104 µM). The IC90 [9] was > 30 mg/L, the cytotoxicity at 30 ug/mL [10] was 37.5% and the cytotoxicity at 10 ug/mL [11] was 37.7%. It also gave a cytotoxicity at 3 ug/mL [12] of 22.3%, a cytotoxicity at 30 ug/mL [13] of -11.4% and a cytotoxicity at 10 ug/mL [14] of 0%. For the same compound, the cytotoxicity at 3 ug/mL [15] was 0%, the cytotoxicity at 30 ug/mL [16] was 29.6% and the cytotoxicity at 10 ug/mL [17] was 9.1%. For the same compound, the cytotoxicity at 3 ug/mL [18] was 1.1%, the GI50 at 72 h [19] was > 100 mg/L and the GI90 [19] was > 100 mg/L. For the same compound, the GI50 at 72 h [20] was > 100 mg/L, the GI90 (A549) was > 100 mg/L and the GI50 at 72 h [21] was > 100 mg/L. The GI90 (MCF7) was > 100 mg/L, the IC50 (Escherichia coli) was > 30 mg/L and the MIC (Escherichia coli) was > 30 mg/L. The IC50 (Pseudomonas) was > 30 mg/L, the MIC (Pseudomonas) was > 30 mg/L and the IC50 (Staphylococcus aureus) was > 30 mg/L. For the same compound, the MIC (Staphylococcus aureus) was > 30 mg/L, the IC50 (Bacillus subtilis) was > 30 mg/L and the MIC (Bacillus subtilis) was > 30 mg/L.

With `O=C1CSC(c2ccc(Br)cc2)N1c1ccccc1` (configuration not stated) the growth inhibition (GI) [1] was 48.7%, the growth inhibition (GI) [2] was 44.4% and the inhibition of growth at 30 µg/mL [3] was 97.7%. The inhibition of growth at 10 µg/mL [4] was 66.4%, the inhibition of growth at 3 µg/mL [5] was -33.2% and the growth inhibition (GI) [6] was 48.8%. The IC50 [7] was > 30 mg/L, the IC90 [8] was > 30 mg/L and the IC50 [9] was 8.9 mg/L (≈ 26.6 µM). For the same compound, the IC90 [9] was 25.2 mg/L (≈ 75.4 µM), the cytotoxicity at 30 ug/mL [10] was 32.8% and the cytotoxicity at 10 ug/mL [11] was 23.8%. The cytotoxicity at 3 ug/mL [12] was 22.1%, the cytotoxicity at 30 ug/mL [13] was 0% and the cytotoxicity at 10 ug/mL [14] was 0%. It also gave a cytotoxicity at 3 ug/mL [15] of 0%, a cytotoxicity at 30 ug/mL [16] of 10.1% and a cytotoxicity at 10 ug/mL [17] of 4.9%. The cytotoxicity at 3 ug/mL [18] was 2.4%, the GI50 at 72 h [19] was > 100 mg/L and the GI90 [19] was > 100 mg/L. For the same compound, the GI50 at 72 h [20] was > 100 mg/L, the GI90 (A549) was > 100 mg/L and the GI50 at 72 h [21] was > 100 mg/L. The GI90 (MCF7) was > 100 mg/L, the IC50 (Escherichia coli) was > 30 mg/L and the MIC (Escherichia coli) was > 30 mg/L. The IC50 (Pseudomonas) was > 30 mg/L, the MIC (Pseudomonas) was > 30 mg/L and the IC50 (Staphylococcus aureus) was > 30 mg/L. For the same compound, the MIC (Staphylococcus aureus) was > 30 mg/L, the IC50 (Bacillus subtilis) was > 30 mg/L and the MIC (Bacillus subtilis) was > 30 mg/L.
